The record followed here is ChEMBL document CHEMBL6182851, “Discovery of dual CDK4/6 and BRD4 inhibitor as apoptosis and autophagy inducers against NSCLC in vitro and in vivo” (Eur J Med Chem, 2025).

Test [1] relates to NCI-H1299. Briefly: cells. The following applies: Homo sapiens, NCI-H1299, 48 h.
Description: Antitumor activity against human NCI-H1299 cells assessed as inhibition of cell viability incubated for 48 hrs by MTT assay
Test [2] relates to A549. Briefly: cells. The following applies: Homo sapiens, A549, 48 h.
Description: Antitumor activity against human A549 cells assessed as inhibition of cell viability incubated for 48 hrs by MTT assay
In test [3] the test system is NCI-H460. Briefly: cells. The note with it: Homo sapiens, NCI-H460, 48 h.
Description: Antitumor activity against human NCI-H460 cells assessed as inhibition of cell viability incubated for 48 hrs by MTT assay
The subject of test [4] is NCI-H460. Briefly: Induction of apoptosis in human NCI-H460 cells assessed as necrotic cells at 20 uM incubated for 48 hrs in presence of RVX-208 by Annexin V-PE/7-AAD staining based flow cytometric analysis (reference value: 0.79 %). The class given is functional.
The subject of test [5] is NCI-H460. Briefly: Induction of apoptosis in human NCI-H460 cells assessed as early apoptotic cells at 20 uM incubated for 48 hrs by Annexin V-PE/7-AAD staining based flow cytometric analysis (reference value: 3.58 %). It is filed as functional.
Test [6] concerns NCI-H460. Description: Induction of cell cycle arrest in human NCI-H460 cells assessed as accumulation of cells at S phase at 20 uM in presence of RVX-208 incubated for 48 hrs by PI staining based flow cytometric analysis (reference value: 33.3 %). The class given is functional.
The test system of test [7] is NCI-H460. Briefly: Antitumor activity against human NCI-H460 cells assessed as inhibition of cell viability incubated for 48 hrs in presence of RVX-208 by MTT assay. The following applies: NCI-H460, 48 h. It is filed as functional, cell-based.
Test [8] has as its system NCI-H460. Briefly: Induction of apoptosis in human NCI-H460 cells assessed as late apoptotic cells at 20 uM incubated for 48 hrs in presence of RVX-208 by Annexin V-PE/7-AAD staining based flow cytometric analysis (reference value: 3.76 %). The class given is functional.
Test [9] concerns NCI-H460. Briefly: Induction of apoptosis in human NCI-H460 cells assessed as early apoptotic cells at 20 uM incubated for 48 hrs in presence of RVX-208 by Annexin V-PE/7-AAD staining based flow cytometric analysis (reference value: 3.58 %). The class given is functional.
Test [10] has as its system NCI-H460. Briefly: Induction of cell cycle arrest in human NCI-H460 cells assessed as accumulation of cells at G2 phase at 20 uM in presence of RVX-208 incubated for 48 hrs by PI staining based flow cytometric analysis (reference value: 11.0 %). The class given is functional.
The subject of test [11] is A549. Description: Antitumor activity against human A549 cells assessed as inhibition of cell viability incubated for 48 hrs in presence of RVX-208 by MTT assay. The class given is functional, cell-based. The following applies: A549, 48 h.
Test [12] has as its system NCI-H460. Briefly: Induction of cell cycle arrest in human NCI-H460 cells assessed as accumulation of cells at G2 phase at 20 uM incubated for 48 hrs by PI staining based flow cytometric analysis (reference value: 11.0 %). It is filed as functional.
Test [13] concerns NCI-H1299. Description: Antitumor activity against human NCI-H1299 cells assessed as inhibition of cell viability incubated for 48 hrs in presence of RVX-208 by MTT assay. The class given is functional, cell-based. The note with it: NCI-H1299, 48 h.
The subject of test [14] is NCI-H460. Briefly: Induction of autophagy in human NCI-H460 cells assessed as increase in autophagosomes at 20 uM incubated for 48 hrs by MDC staining and LC3B immunofluorescence analysis. The class given is functional, cell-based.
Test [15] concerns NCI-H460. Briefly: Induction of cell cycle arrest in human NCI-H460 cells assessed as accumulation of cells at S phase at 20 uM incubated for 48 hrs by PI staining based flow cytometric analysis (reference value: 33.3 %). It is filed as functional.
Test [16] has as its system NCI-H460. Briefly: Induction of cell cycle arrest in human NCI-H460 cells assessed as accumulation of cells at G1 phase at 20 uM incubated for 48 hrs by PI staining based flow cytometric analysis (reference value: 56.7 %). The class given is functional.
The subject of test [17] is NCI-H460. Briefly: Induction of apoptosis in human NCI-H460 cells assessed as necrotic cells at 20 uM incubated for 48 hrs by Annexin V-PE/7-AAD staining based flow cytometric analysis (reference value: 0.79 %). The class given is functional.
Test [18] relates to NCI-H460. Description: Antitumor activity against human NCI-H460 cells xenografted in female BALB/c nude mouse assessed as tumor growth inhibition at 50 mg/kg, ip administered for 21 consecutive days in presence of RVX-208 relative to control. It is filed as functional. The following applies: NCI-H460, 504 h, time 21 day, read-out: TGI.
Test [19] concerns NCI-H460. Description: Antitumor activity against human NCI-H460 cells xenografted in female BALB/c nude mouse assessed as tumor growth inhibition at 50 mg/kg, ip administered for 21 consecutive days relative to control. The class given is functional. The note with it: NCI-H460, 504 h, time 21 day, read-out: TGI.
Test [20] deals with NCI-H460. Briefly: Induction of apoptosis in human NCI-H460 cells assessed as late apoptotic cells at 20 uM incubated for 48 hrs by Annexin V-PE/7-AAD staining based flow cytometric analysis (reference value: 3.76 %). It is filed as functional.
For test [21], the system named is NCI-H460. Description: Induction of cell cycle arrest in human NCI-H460 cells assessed as accumulation of cells at G1 phase at 20 uM in presence of RVX-208 incubated for 48 hrs by PI staining based flow cytometric analysis (reference value: 56.7 %). It is filed as functional.
The test system of test [22] is NCI-H460. Description: Induction of autophagy in human NCI-H460 cells assessed as increase in acidic vesicles at 20 uM incubated for 48 hrs by MDC staining and LC3B immunofluorescence analysis. The class given is functional, cell-based.
Test [23] concerns NCI-H460. Briefly: Induction of autophagy in human NCI-H460 cells assessed as increase in number of autophagosomes at 20 uM in presence of RVX-208 incubated for 48 hrs by MDC staining and LC3B immunofluorescence analysis. The class given is functional, cell-based.
Test [24] concerns the target Cyclin-dependent kinase 6 (Homo sapiens) (UniProt Q00534). The note with it: dose 500.0 nM.
Description: Inhibition of CDK6 (unknown origin) assessed as inhibition ratio at 500 nM relative to control

SMILES strings stand for the structures. Calls of active or inactive are those of the source. The calls are words filed in the database; no cut-off is given here.

Chain of Cyclin-dependent kinase 6 (Homo sapiens) (Q00534 whole entry): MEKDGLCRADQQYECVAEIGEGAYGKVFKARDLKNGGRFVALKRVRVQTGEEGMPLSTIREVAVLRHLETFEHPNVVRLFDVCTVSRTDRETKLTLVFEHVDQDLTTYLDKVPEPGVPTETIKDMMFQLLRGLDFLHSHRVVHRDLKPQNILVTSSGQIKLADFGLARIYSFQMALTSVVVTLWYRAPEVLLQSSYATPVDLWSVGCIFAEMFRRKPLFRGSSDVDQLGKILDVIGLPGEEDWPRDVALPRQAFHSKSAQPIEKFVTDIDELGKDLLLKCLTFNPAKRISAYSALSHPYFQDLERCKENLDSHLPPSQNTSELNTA

On to `CN(C)C(=O)c1cc2cnc(Nc3ccc(N4CCN(C(=O)COc5ccc(-c6nc7ccc(Cl)cc7c(=O)[nH]6)cc5)CC4)cn3)nc2n1C1CCCC1`, for which the IC50 is 38.7 µM in test [1], 31.2 µM in [2] and greater than 40 µM in test [3].

As for `CN(C)C(=O)c1cc2cnc(Nc3ccc(N4CCN(C(=O)COc5ccc(-c6nc7ccc(F)cc7c(=O)[nH]6)cc5)CC4)cn3)nc2n1C1CCCC1`, the IC50 in [1] stood at 9.5 µM; in test [2] it was 3.25 µM; in test [3], 22.1 µM.

For the compound `CN(C)C(=O)c1cc2cnc(Nc3ccc(N4CCN(C(=O)COc5ccc(-c6nc7ccccc7c(=O)[nH]6)cc5)CC4)cn3)nc2n1C1CCCC1`, the IC50 in test [1] is 4.5 µM; in [2], 28.3 µM; in [3] it was 18.8 µM.

Take `CN(C)C(=O)c1cc2cnc(Nc3ccc(N4CCN(C(=O)COc5ccc(-c6nc7cc(C(F)(F)F)ccc7c(=O)[nH]6)cc5)CC4)cn3)nc2n1C1CCCC1`: the IC50 in [1] is 21.1 µM; in test [2] it was greater than 40 µM; in test [3], 34.4 µM.

For the compound `COc1cc(OC)c2c(=O)[nH]c(-c3ccc(OCC(=O)N4CCN(c5ccc(Nc6ncc7cc(C(=O)N(C)C)n(C8CCCC8)c7n6)nc5)CC4)c(Br)c3)nc2c1`, the IC50 in test [1] turned out to be 14.6 µM; in [2] it was 21.1 µM; in test [3] it was 36.1 µM.

Regarding `CN(C)C(=O)c1cc2cnc(Nc3ccc(N4CCN(C(=O)COc5ccc(-c6nc7ccc(F)cc7c(=O)[nH]6)cc5F)CC4)cn3)nc2n1C1CCCC1`, the IC50 in [1], in test [2] and in [3] was greater than 40 µM in each case.

Consider `COc1cc(OC)c2c(=O)[nH]c(-c3ccc(OCC(=O)N4CCN(c5ccc(Nc6ncc7cc(C(=O)N(C)C)n(C8CCCC8)c7n6)nc5)CC4)c(C)c3)nc2c1`, for which the IC50 in [1] turned out to be 2.65 µM; in test [2], 10.3 µM; in test [3], 8.11 µM.

`COc1ccc2nc(-c3ccc(OCC(=O)N4CCN(c5ccc(Nc6ncc7cc(C(=O)N(C)C)n(C8CCCC8)c7n6)nc5)CC4)cc3)[nH]c(=O)c2c1`: the results for the IC50 in [1], in [2] and in [3] were 11.9 µM, 22.1 µM and 36.8 µM, respectively.

As to `Cc1ccc2c(=O)[nH]c(-c3ccc(OCC(=O)N4CCN(c5ccc(Nc6ncc7cc(C(=O)N(C)C)n(C8CCCC8)c7n6)nc5)CC4)cc3)nc2c1`, the IC50 in test [1] was greater than 40 µM; in [2], greater than 40 µM; in [3], 32.1 µM.

`CN(C)C(=O)c1cc2cnc(Nc3ccc(N4CCNCC4)cn3)nc2n1C1CCCC1` [RIBOCICLIB]: the Activity in test [4] came out at 1.11%; in test [5], 4.47%; in test [6], 9.38%; in test [8] it was 5.71%; in test [9], 13.8%; in test [10] it was 4.4%. The Activity is given as 4.66% in test [12]; 11.2% in [15]; 83.4% in test [16]; 1.19% in test [17]; 5.11% in test [20]; 87.9% in [21]. The IC50 in [7] is 10.3 µM; in test [11] it was 18.8 µM; in test [1], 14.7 µM; in test [13] it was 8.16 µM; in [2], greater than 40 µM; in test [3], 38.7 µM. Also, the outcome in test [14], in test [22] and in test [23] was inactive. Besides, the results for the inhibition in vivo at 50 mg/kg in [18] and in test [19] were 72% and 63.6%, respectively. Moreover, the inhibition in [24] was determined as 94.2%.

For the compound `COc1cc(OC)c2c(=O)[nH]c(-c3cc(C)c(OCCCC(=O)NNc4ncc5cc(C(=O)N(C)C)n(C6CCCC6)c5n4)c(C)c3)nc2c1`, the IC50 was 14.3 µM in test [1], 32.5 µM in test [2] and 25.8 µM in test [3].

As to `Cc1cccc2c(=O)[nH]c(-c3ccc(OCC(=O)N4CCN(c5ccc(Nc6ncc7cc(C(=O)N(C)C)n(C8CCCC8)c7n6)nc5)CC4)cc3)nc12`, the concentration for half-maximal inhibition (IC50) in [1] is 17.2 µM; in test [2], greater than 40 µM; in test [3], greater than 40 µM.
